Data set [1] relates to skin (buttocks) of three volunteers, epidermis. Briefly: Penetration depth into the skin (color reaction on biopsy slices). Format: in vivo. The settings on record: human. An excerpt:
The essential condition is the existence of a specific detection method, which can be used to visualize the presence of particular sunscreen component. In case of quercetin one can take advantage of the existence of ortho dihydroxybenzene (catechol) configuration on the benzene ring B. Different colorimetric methods for catechols have been described. We choose the reaction described in J. Invest Dermatol., 70:197, 1978, (S. Pavel et al.).
Skin penetration study were executed using the following preparations:
1. Quercetin (1%) in cremor cetomacrogolis FNA (CMC)
2. Querceti-gelatin (small molecular weight fraction) (10-20%) in CMC.
3. Quercetin-gelatin (large molecular weight fraction) (10-20%) in CMC.
4. Catechol (1%) (as a penetration marker) in CMC.
The preparations were applied to the skin (buttocks) of three volunteers. The penetration times were 30 min, 1 hour and 3 hours. After each penetration time a biopsy (4 mm) was taken after local anesthesia. The biopsy material was frozen in liquid nitrogen and kept for the further analysis.
The biopsy material were cut in consecutive slices of 8 um thick The slices were incubated in a selected solution to achieve the color characteristic of catecholic structures. The depth of penetration was measured visually and expressed as a percentage penetrated epidermis, as follows: […]

In data set [2] the test system is skin of volunteer subjects (skin types III or IV), UV-A radiation. Briefly: UV-A protection test on volunteer subjects (MPD, SPF). The format is in vivo, human. The following applies: one value per volunteer. Here is the method: The test is performed on volunteer subjects with normal skin types III (Burns moderately, tans gradually) or IV (Burns minimally; tans well). The subjects have no history of photo-sensitivity, are not using systematic medications and have not been exposed to direct sunlight for the previous 6 weeks.
Two test sites of 5×10 cm, each test site divided in 6 sub-sites, are marked on the back of the subjects between the waist line and the shoulder blades. One test site is not treated and therefor unprotected. On the other test site 100 mg sunscreen product is applied uniformly to the skin so that the amount of the UV-absorbing compound applied is about 2 mg per m2. In case of the quercetin-gelatin compound the amount applied is such that also in this case 2 mg/m2 of the linked quercetin is applied, The applied sunscreen is allowed to dry for about 15 minutes.
A series of six doses of UV-A radiation, increasing in energy is applied to each test site using a UV-A Sellas Sun 2000 (irradiance about 50 milliWatt/cm^2 at 30 cm). […]
The MPD (minimal pigmenting dose) of each test site is determined visually after 3 hours of exposure. The MPD is defined as the quantity of radiation energy required to produce the first unambiguous pigmented reaction.
The SPF (Sun protection factor) is calculated as the quotient of […].

Data set [3] in a line: Chelating capacity: free Fe2+ by ion chromatography. Format: physicochemical. The settings on record: test samples a: 1 millimol/l FeSO4 solution mixed 1:1 with test solution, ethanol:water 1:3, 10 minutes at 37° C.; iron alone 0.50. An excerpt:
(§1) The amount of free Fe^2+ and Fe^3+ can be determined by ion-chromatography.
(§2) Gelatin has a very high affinity to Dionex column material that is used in the determination of iron ions. Gelatin will not elute from the column and thereby changes the characteristics of the column so that the separation is not stable. To prevent this a solid state extraction (SPE) column is used to separate the metal ions from the gelatin matrix. After this pretreatment the sample is conservated with 10 millimolar hydrochloric acid. The sample is then injected into the ion-chromatograph. The metal-ions form a complex with the pyridine-2,6-dicarboxylic acid (PDCA). The complexed iron ions are then separated by their differences in affinity to the column material, which has as well anion as cation characteristics (mixed mode). […] The signals obtained at the retention times known for Fe^2+ and Fe^3+ are proportional to the concentrations, which are calculated from a calibration curve.
(§3) A Dionex OnGuard-RP P/N 039595 column was conditioned with 5 ml methanol and 10 ml de-ionized water. […] 5 ml of the eluate is quantitatively pipetted into a 10 ml volumetric flask and 20 mM hydrochloric acid was added up to 10.00 ml. […]
(§4) In the same way, test samples 1b, 2b, 3b and 4b were prepared with Fe2(SO4)3 instead of FeSO4. […] The amounts of free Fe^2+ or Fe^3+ were determined by the method described above.

Data set [4] can be described thus: Chelating capacity: free Fe3+ by ion chromatography. The format is physicochemical. The settings on record: test samples b: Fe2(SO4)3 instead of FeSO4, mixed 1:1 with test solution, 10 minutes at 37° C.; iron alone 0.50.
Description: as §1, §2, §3, §4

Experimental findings from patent publication US20040247537A1, “Uv-screening peptide-flavonoid conjugates” (priority 2001, published 2004) are described below.

Several values for one entry are separate records, joined by “and”; a condition that tells them apart may be missing. Equal values may be shown once.

Consider `Oc1ccccc1O` [Catechol (1%), Catechol], for which the “Penetration depth, percentage penetrated epidermis” value stood at 40% in data set [1] (30 min), 60% in data set [1] (1 h) and 90% in data set [1] (3 h).

Turning to `O=c1c(O)c(-c2ccc(O)c(O)c2)oc2cc(O)cc(O)c12` [Quercetin, quercetin], the “MPD (minimal pigmenting dose), protected” value in data set [2] (protected test site, about 2 mg per m2 UV-absorbing compound (linked quercetin) applied, UV-A doses 33 to 8 joule/cm^2, determined visually after 3 hours) was 14 Joule/cm^2 and 19 Joule/cm^2. Further, the “SPF (Sun protection factor)” value in data set [2] (quotient of the MPDs of protected and unprotected skin, UV-A) was 1.8 and 2.4. Besides, the results for the “Penetration depth, percentage penetrated epidermis” value in data set [1] (30 min), in data set [1] (1 h) and in data set [1] (3 h) were 30%, 50% and 80%, respectively. Also, the “Amount of free Fe^2+” value in data set [3] came to 0.16 millimol per liter. In addition, the “Amount of free Fe^3” value in data set [4] is 0.20 millimol per liter.
